6 molecules from patent US7501440B2, “Substituted benzoylureidopyridylpiperidine-and-pyrrolidinecarboxylic acid derivatives, processes for preparing them and their use” (Sanofi-Aventis Deutschland GmbH, priority 2003, dated 2009) can be followed below.

For data set [1], the target named is T1, human glycogen phosphorylase a (Homo sapiens, UniProt P06737).
T1 sequence (P06737 1-847): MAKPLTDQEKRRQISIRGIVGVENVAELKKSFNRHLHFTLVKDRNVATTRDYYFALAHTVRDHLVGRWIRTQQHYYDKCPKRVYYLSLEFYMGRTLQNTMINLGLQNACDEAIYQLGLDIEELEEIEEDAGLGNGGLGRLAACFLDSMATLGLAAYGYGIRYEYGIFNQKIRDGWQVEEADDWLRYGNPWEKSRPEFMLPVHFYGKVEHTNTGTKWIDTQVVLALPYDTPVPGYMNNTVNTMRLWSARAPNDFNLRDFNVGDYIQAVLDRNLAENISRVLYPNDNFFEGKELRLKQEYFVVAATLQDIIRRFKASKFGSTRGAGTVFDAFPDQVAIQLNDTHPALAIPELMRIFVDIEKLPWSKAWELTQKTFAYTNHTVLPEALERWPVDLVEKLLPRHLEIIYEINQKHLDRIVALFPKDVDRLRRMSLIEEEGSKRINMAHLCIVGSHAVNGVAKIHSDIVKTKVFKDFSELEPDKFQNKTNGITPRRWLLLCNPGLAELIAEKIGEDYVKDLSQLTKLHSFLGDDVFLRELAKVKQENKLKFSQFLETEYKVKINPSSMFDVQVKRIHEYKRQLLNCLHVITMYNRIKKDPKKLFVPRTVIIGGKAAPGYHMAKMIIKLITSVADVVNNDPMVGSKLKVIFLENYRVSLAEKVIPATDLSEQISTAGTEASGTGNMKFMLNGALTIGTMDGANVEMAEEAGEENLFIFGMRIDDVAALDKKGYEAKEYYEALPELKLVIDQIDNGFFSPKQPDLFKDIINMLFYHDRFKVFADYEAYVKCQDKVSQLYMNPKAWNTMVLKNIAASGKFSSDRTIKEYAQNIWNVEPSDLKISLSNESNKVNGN
Description: Glycogen phosphorylase a activity test. It counts as biochemical. The following applies: inhibition of GPa in vitro, reverse direction (glycogen synthesis from glucose 1-phosphate, release of inorganic phosphate). The protocol: Glycogen Phosphorylase a Activity Test
The effect of compounds on the activity of the active form of glycogen phosphorylase (GPa) was measured in the reverse direction by monitoring the synthesis of glycogen from glucose 1-phosphate by determining the release of inorganic phosphate. All reactions were carried out as duplicate determinations in 96-well microtiter plates (half area plates, Costar No. 3696), and the change in absorption as a consequence of the formation of the reaction product was measured at the wavelength specified below in a Multiskan Ascent Elisa Reader (Lab Systems, Finland). In order to measure the GPa enzyme activity in the reverse direction, the conversion of glucose 1-phosphate to glycogen and inorganic phosphate was measured by the general method of Engers et al. (Engers H D, Shechosky S, Madsen N B, Can J Biochem 1970 July; 48(7):746-754) with the following modifications: human glycogen phosphorylase a (for example containing 0.76 mg of protein/ml (Aventis Pharma Deutschland GmbH), dissolved in buffer solution E (25 mM β-glycerophosphate, pH 7.0, 1 mM EDTA and 1 mM dithiothreitol) was diluted to a concentration of 10 μg of protein/ml with buffer T (50 mM Hepes, pH 7.0, 100 mM KCI, 2.5 mM EDTA, 2.5 mM MgCl2·6H2O) and addition of 5 mg/ml of glycogen. Test substances were prepared as a 10 mM solution in DMSO and diluted to 50 μM with buffer solution T. To 10 μl of this solution were added 10 μl of 37.5 mM glucose dissolved in buffer solution T and 5 mg/ml of glycogen, and also 10 μl of a solution of human glycogen phosphorylase a (10 μg of protein/ml) and 20 μl of 2.5 mM glucose 1-phosphate. The base value of the activity of glycogen phosphorylase a in the absence of test substance was determined by adding 10 μl of buffer solution T (0.1% DMSO). The mixture was incubated at room temperature for 40 minutes and the released inorganic phosphate was determined by means of the general method of Drueckes et al. (Drueckes P, Schinzel R, Palm D, Anal Biochem 1995 September 1;230(1):173-177) with the following modifications: 50 μl of a stop solution of 7.3 mM of ammonium molybdate, 10.9 mM of zinc acetate, 3.6% of ascorbic acid, 0.9% of SDS are added to 50 μl of the enzyme mixture. After 60 minutes of incubation at 45° C., the absorption was measured at 820 nm. To determine the background absorption, the stop solution was added immediately after the addition of the glucose 1-phosphate solution in a separate reaction. […]

For orientation: IC50 means the concentration needed to halve the response being measured. Low readings indicate inhibition by little substance, high ones a need for much substance. Molecule `O=C(NC(=O)c1ccc(F)cc1Cl)Nc1cccnc1N1CCC(C(=O)O)CC1` [Example 1, 3′-[3-(2-Chloro-4-fluorobenzoyl)ureido]-3,4,5,6-tetrahydro-2H-[1,2′]bipyridinyl-4-carboxylic acid] had an IC50 in data set [1] of 40 nM. In other words, the double-digit nanomolar range. What is called melting point is the temperature, or range, at which the solid turns liquid. In turn, `O=C(NC(=O)c1cc(F)c(F)cc1Cl)Nc1cccnc1N1CCC(C(=O)O)(c2ccccc2)CC1` [Example 6, 3′-[3-(2-Chloro-4,5-difluorobenzoyl)ureido]-4-phenyl-3,4,5,6-tetrahydro-2H-[1,2′]bipyridinyl-4-carboxylic acid] registered a melting point of 250.9 °C. With `O=C(NC(=O)c1cc(F)c(F)cc1Cl)Nc1cccnc1N1CCC(C(=O)NCCO)CC1` [Example 5, N-(2-hydroxyethyl)-3′-[3-(2-chloro-4,5-difluorobenzoyl)ureido]-3,4,5,6-tetrahydro-2H-[1,2′]bipyridinyl-4-carboxamide], in data set [1], it took 3650 nM to reach half-maximal inhibition (IC50). This lies in the single-digit micromolar range. `COC(=O)C1CCN(c2ncccc2NC(=O)NC(=O)c2cc(F)c(F)cc2Cl)CC1` [Example 3, Methyl 3′-[3-(2-chloro-4,5-difluorobenzoyl)ureido]-3,4,5,6-tetrahydro-2H-[1,2′]bipyridinyl-4-carboxylate]: the melting point was 195.9 °C. For the molecule `O=C(NC(=O)c1cc(F)c(F)cc1Cl)Nc1cccnc1N1CCC(C(=O)O)CC1` [Example 2, 3+-[3-(2-Chloro-4,5-difluorobenzoyl)ureido]-3,4,5,6-tetrahydro-2H-[1,2′]bipyridinyl-4-carboxylic acid], in data set [1], the IC50 stood at 10 nM. In other words, the double-digit nanomolar range. Same read-out and setting: the figure for `NC(=O)C1CCN(c2ncccc2NC(=O)NC(=O)c2cc(F)c(F)cc2Cl)CC1` [Example 4, 3′-[3-(2-Chloro-4,5-difluorobenzoyl)ureido]-3,4,5,6-tetrahydro-2H-[1,2′]bipyridinyl-4-carboxamide] is 160 nM.
